Among the test systems are KM12 colon; SF-539 CNS; NCI-H226 lung; RXF 393 renal; SN12C renal; HCT-116 colon; UACC-62 melanoma; HOP-92 NSCLC; HOP-62 NSCLC; OVCAR-4 ovarian.
Assay in all cases: inhibition of tumour cell growth, NCI panel, 48 h

Data on 10 molecules can be found in PubChem BioAssay (NCI).

The structures appear in SMILES notation. Where “and” joins values, the source holds several entries; their conditions need not be identical. Equal values may be shown once.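 A five-concentration, 48-hour dose response in 96-well plates underlies each endpoint, interpolated linearly between surrounding concentrations. The concentration for 50% growth inhibition is given as GI50. TGI marks complete inhibition of growth.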

Regarding `COc1ccc2c(CN3CCCC[C@H]3O)cc3cc4c(cc3c2c1)OCO4`, the GI50 with KM12 colon was 0.48 µM; in the assay on SF-539 CNS it was 0.375 µM; in the assay with NCI-H226 lung, 0.251 µM; in the assay on RXF 393 renal it was 0.191 µM; in the assay on SN12C renal it was 0.326 µM; in the assay on HCT-116 colon it was 0.223 µM. The GI50 with UACC-62 melanoma was 0.247 µM; with HOP-92 NSCLC it was 0.241 µM; in the assay on HOP-62 NSCLC it was 0.541 µM; with OVCAR-4 ovarian, 0.393 µM. The TGI with KM12 colon was 5.22 µM; in the assay with SF-539 CNS it was 1.83 µM; with NCI-H226 lung, 0.589 µM; with RXF 393 renal, 0.95 µM; in the assay on SN12C renal, 4.06 µM; with HCT-116 colon it was 10.7 µM. Besides, the TGI came to 0.712 µM with UACC-62 melanoma, 2.4 µM with HOP-92 NSCLC, 3.52 µM in the assay with HOP-62 NSCLC and 2.99 µM in the assay with OVCAR-4 ovarian.

Turning to `CCOC(=O)NN1C(=O)C(=P(c2ccccc2)(c2ccccc2)c2ccccc2)C(C(=O)OC)=C1C`, the TGI in the assay with KM12 colon, in the assay on SF-539 CNS, with NCI-H226 lung, in the assay on RXF 393 renal, in the assay with SN12C renal and with HCT-116 colon was above 100 µM throughout. The TGI in the assay with UACC-62 melanoma, in the assay on HOP-92 NSCLC, in the assay with HOP-62 NSCLC and with OVCAR-4 ovarian was above 100 µM in each case.

For the molecule `Cc1nc(Nc2ccc(Cl)cc2)sc1C(=O)Nc1cccc2c(=O)[nH][nH]c(=O)c12`, the TGI with KM12 colon is above 100 µM; in the assay on SF-539 CNS, above 100 µM; with NCI-H226 lung, above 100 µM; with RXF 393 renal it was 69.2 µM; in the assay with SN12C renal it was above 100 µM; in the assay on HCT-116 colon it was above 100 µM. Besides, the TGI in the assay on UACC-62 melanoma is 16.4 µM; with HOP-92 NSCLC, 38.8 µM; in the assay on HOP-62 NSCLC it was above 100 µM; in the assay with OVCAR-4 ovarian it was above 100 µM.

`CN1C2C=CC(=O)C1C(C#N)C2` (centres undefined): the TGI with KM12 colon is above 100 µM; in the assay with SF-539 CNS it was 84 µM and > 100 µM; in the assay on NCI-H226 lung, above 100 µM; in the assay on RXF 393 renal, 64.3 µM and > 100 µM; in the assay with SN12C renal it was above 100 µM; in the assay on HCT-116 colon, 54.9 µM and > 100 µM. For the same molecule, the TGI with UACC-62 melanoma is above 100 µM; in the assay on HOP-92 NSCLC it was 57.7 µM and 93.5 µM; in the assay with HOP-62 NSCLC it was above 100 µM. For the same molecule, the GI50 with NCI-H226 lung is 97.7 µM; with RXF 393 renal, 23.9 µM and 57.7 µM.

Turning to `COc1ccc(C(=O)c2ccccc2)c(O)c1`, the GI50 is 63 µM in the assay with KM12 colon; above 100 µM in the assay on SF-539 CNS; above 100 µM in the assay on NCI-H226 lung; 41 µM with RXF 393 renal; 75.6 µM in the assay with SN12C renal; 50.7 µM with HCT-116 colon. The GI50 was 57.1 µM with UACC-62 melanoma, 78.5 µM in the assay on HOP-92 NSCLC, above 100 µM in the assay on HOP-62 NSCLC and above 100 µM in the assay on OVCAR-4 ovarian. The TGI in the assay with KM12 colon, in the assay on SF-539 CNS, in the assay with NCI-H226 lung, in the assay with RXF 393 renal, with SN12C renal and in the assay on HCT-116 colon was above 100 µM throughout. The TGI with UACC-62 melanoma, in the assay on HOP-92 NSCLC, with HOP-62 NSCLC and in the assay with OVCAR-4 ovarian was above 100 µM each time.

As for `COc1ccc2c(c1)[n+](=O)c(/C=C/C(=O)c1cc(OC)c(OC)c(OC)c1)c(C)n2[O-]`, the GI50 is 14.4 µM in the assay with KM12 colon; 15.7 µM with SF-539 CNS; 22.1 µM with NCI-H226 lung; 3.98 µM with RXF 393 renal; 6.33 µM with SN12C renal; 3.23 µM in the assay with HCT-116 colon. In addition, the GI50 was 2.9 µM in the assay with UACC-62 melanoma, 2.56 µM in the assay with HOP-92 NSCLC, 19.4 µM in the assay on HOP-62 NSCLC and 9.35 µM in the assay with OVCAR-4 ovarian. In addition, the TGI was 60.5 µM in the assay with KM12 colon; 38.8 µM in the assay on SF-539 CNS; above 100 µM with NCI-H226 lung; above 100 µM in the assay on RXF 393 renal; 48.5 µM with SN12C renal; 14.2 µM with HCT-116 colon. The TGI in the assay with UACC-62 melanoma was 14.1 µM; in the assay on HOP-92 NSCLC, 19.1 µM; in the assay on HOP-62 NSCLC, 47 µM; in the assay on OVCAR-4 ovarian it was above 100 µM.

For `O=C(NCCCN1CCN(CCCNC(=O)Nc2cc(Cl)ccc2Cl)CC1)Nc1cc(Cl)ccc1Cl`, the TGI in the assay with KM12 colon, in the assay with SF-539 CNS, with NCI-H226 lung, in the assay with RXF 393 renal, in the assay on SN12C renal and with HCT-116 colon was above 100 µM throughout. The TGI in the assay on UACC-62 melanoma, in the assay with HOP-92 NSCLC, with HOP-62 NSCLC and in the assay with OVCAR-4 ovarian was above 100 µM each time.

In the case of `COC(=O)CCC(NC(=S)N/N=C(\C)c1cccs1)C(=O)OC` (centres undefined), the TGI with KM12 colon, in the assay on SF-539 CNS, in the assay on NCI-H226 lung, in the assay on RXF 393 renal, in the assay with SN12C renal and in the assay with HCT-116 colon was above 100 µM in each case. Besides, the TGI in the assay on UACC-62 melanoma, in the assay with HOP-92 NSCLC, in the assay on HOP-62 NSCLC and in the assay on OVCAR-4 ovarian was above 100 µM in each case.

As to `CN(Cc1cnc2nc(N)nc(N)c2n1)c1c(Cl)cc(C(=O)NC(CCC(=O)O)C(=O)O)cc1Cl` (centres undefined), the GI50 is below 0.0137 µM in the assay on KM12 colon; below 0.01 µM with SF-539 CNS; 0.0745 µM in the assay with NCI-H226 lung; 0.731 µM with RXF 393 renal; below 0.01 µM in the assay with SN12C renal; below 0.01 µM in the assay with HCT-116 colon. In addition, the GI50 in the assay with UACC-62 melanoma was below 0.0106 µM; with HOP-92 NSCLC, 1.49 µM; in the assay with HOP-62 NSCLC it was 0.0287 µM. Further, the TGI in the assay on KM12 colon, in the assay on SF-539 CNS, in the assay on NCI-H226 lung, with RXF 393 renal, in the assay on SN12C renal and in the assay on HCT-116 colon was above 100 µM throughout. Also, the TGI with UACC-62 melanoma, with HOP-92 NSCLC, in the assay with HOP-62 NSCLC and in the assay on OVCAR-4 ovarian was above 100 µM throughout.

Regarding `Nc1ccccc1SC(/C=C/NNC1=NC(c2ccccc2)C(c2ccccc2)=NN1)c1ccccc1` (centres undefined), the TGI stood at 29.1 µM in the assay on KM12 colon; 25.9 µM with SF-539 CNS; 30.4 µM in the assay on NCI-H226 lung; 27.1 µM with RXF 393 renal; 31.5 µM in the assay with SN12C renal; 24.1 µM with UACC-62 melanoma. Also, the TGI with HOP-92 NSCLC was determined as 22.1 µM; with HOP-62 NSCLC, 34.3 µM; with OVCAR-4 ovarian it was 28.7 µM.
